# Experimental data from publication PMC6768028, “Synthesis, SAR and in vitro therapeutic potentials of thiazolidine-2,4-diones” (Chemistry Central Journal, 2018).
# Like-named read-outs stand apart in the source and are kept apart here.
# Experiments:
# [1] = tested on: α-amylase enzyme (diastase); assay: Antidiabetic activity: α-amylase inhibitory activity using diastase, colorimetric method; format: biochemical; conditions: for IC50 (antidiabetic activity, α-amylase): calculated via graph of % inhibition
# Experimental: All the synthesized compounds were evaluated against α-amylase inhibitory activity by using diastase based on colorimetric method. 0.25 g of soluble potato starch was dissolved in 50 ml of 20 mM phosphate buffer by heating for 15 min. 1 mg diastase (amylase enzyme) was mixed in 100 ml of 20 mM phosphate buffer (pH 6.9) to obtain the enzyme solution. Different concentrations of all the synthesized derivatives were prepared by dissolving them in DMSO. […] 1 ml of enzyme solution was mixed with 1 ml of each synthesized derivatives and incubated for 10 min at 25 °C. Then 1 ml of this mixture was mixed with 1 ml of soluble potato starch solution in a tube and incubated for 10 min at 25 °C. Then tubes were closed after adding 1 ml of color reagent and placed into water bath for 15 min at 85 °C. The reaction mixture was removed from water bath after 15 min. After cooling, the reaction mixture was diluted with 9 ml of distilled water and the absorbance was taken at 540 nm in UV spectrophotometer. Blank solution was prepared by replacing the enzyme solution with buffer solution and absorbance was taken. Measurement of control was performed in identical manner by replacing the synthesized derivatives in 1 ml of DMSO.
# Percentage inhibition of α-amylase enzyme was calculated by using following formula:1 %Inhibition=ABlank-ASample/ABlank×100
# [2] = Antioxidant activity: free radical scavenging method by DPPH assay; conditions: for % inhibition (DPPH), 25 μg/ml / % inhibition (DPPH), 50 μg/ml / % inhibition (DPPH), 75 μg/ml / % inhibition (DPPH), 100 μg/ml: 30 min, 517 nm; for IC50 (antioxidant activity, DPPH): calculated via graph of % inhibition
# Experimental: The antioxidant activity of the newly synthesized compounds were evaluated spectrophotometrically using free radical scavenging method by DPPH (2,2-diphenyl-1-picrylhydrazyl) assay. The DPPH is a stable free radical with maximal absorption at 517 nm and is reduced to a corresponding hydrazine when it reacting with hydrogen donors. […] DPPH solution (3 μg/ml) was prepared in methanol and DPPH (in 1:1) solution was used for blank reference. Four dilutions of different concentrations (25, 50, 75 and 100 μg/ml) of each synthesized compound and standard (ascorbic acid) were prepared in the methanol and 1 ml of each concentration was added to 1 ml of DPPH solution. The solution mixture was shaken vigorously and kept in dark place for 30 min at room temperature and absorbance was measured by UV at 517 nm. Percentage inhibition of Free radical DPPH was calculated as follows:1 %Inhibition=ABlank-ASample/ABlank×100 where, ABlank: absorbance of the blank reaction, ASample: absorbance of the test compound.
# [3] = tested on: Escherichia coli; assay: Antimicrobial activity, tube dilution method (MIC); format: cell-based; conditions: 24 h
# Experimental: (§1) The in vitro antimicrobial activity of synthesized compounds was done by tube dilution method against Gram-positive bacteria: Staphylococcus aureus, Bacillus subtilis, Gram-negative bacteria: Escherichia coli, Klebsiella pneumonia, Salmonella typhi and fungal: Candida albicans and Aspergillus niger strains using cefadroxil and fluconazole as standard. Dilutions of test and standard compounds were prepared in double strength nutrient broth for bacterial strains and Sabouraud dextrose broth for fungal strains.
# [4] = tested on: Staphylococcus aureus; assay: Antimicrobial activity, tube dilution method (MIC); format: cell-based; conditions: 24 h, read-out: Minimum inhibitory concentration, S. aureus, tube dilution, 37 ± 1 °C, 24 h
# Experimental: as §1
# [5] = tested on: Salmonella typhi; assay: Antimicrobial activity, tube dilution method (MIC); format: cell-based; conditions: Salmonella enterica, TYPHI, 24 h, read-out: Minimum inhibitory concentration, S. typhi
# Experimental: as §1
# [6] = tested on: Klebsiella pneumonia; assay: Antimicrobial activity, tube dilution method (MIC); format: cell-based; conditions: Klebsiella pneumoniae, 24 h
# Experimental: as §1
# [7] = tested on: Bacillus subtilis; assay: Antimicrobial activity, tube dilution method (MIC); format: cell-based; conditions: 24 h
# Experimental: as §1
# [8] = tested on: Candida albicans; assay: Antifungal activity, tube dilution method (MIC); format: cell-based; conditions: 48 h
# Experimental: as §1
# [9] = tested on: Aspergillus niger; assay: Antifungal activity, tube dilution method (MIC); format: cell-based; conditions: 168 h
# Experimental: as §1
# [10] = read-out: Minimum inhibitory concentration, E. coli, tube dilution, 37 ± 1 °C, 24 h
# [11] = tube dilution, 37 ± 1 °C, read-out: Minimum inhibitory concentration, K. pneumonia
# [12] = tube dilution, 37 ± 1 °C, read-out: Minimum inhibitory concentration, B. subtilis
# [13] = read-out: Minimum inhibitory concentration, C. albicans, tube dilution, 37 ± 1 °C, 48 h
# [14] = read-out: Minimum inhibitory concentration, A. niger, tube dilution, 25 ± 1 °C, 7 days
# [15] = read-out: Minimum inhibitory concentration, K. pneumonia, tube dilution, 37 ± 1 °C, 24 h
# [16] = read-out: Minimum inhibitory concentration, B. subtilis, tube dilution, 37 ± 1 °C, 24 h
Structure (SMILES),"% inhibition (α-amylase), 25 μg/ml [1] [%]","% inhibition (α-amylase), 50 μg/ml [1] [%]","% inhibition (α-amylase), 75 μg/ml [1] [%]","% inhibition (α-amylase), 100 μg/ml [1] [%]","% inhibition (DPPH), 25 μg/ml [2] [%]","% inhibition (DPPH), 50 μg/ml [2] [%]","% inhibition (DPPH), 75 μg/ml [2] [%]","% inhibition (DPPH), 100 μg/ml [2] [%]","IC50 (antioxidant activity, DPPH) [2] [µg/mL]","MIC [3, 10] [mM]",MIC [4] [mM],MIC [5] [mM],"IC50 (antidiabetic activity, α-amylase) [1] [µg/mL]","MIC [8, 13] [mM]","MIC [9, 14] [mM]","MIC [6, 15] [mM]","MIC [7, 16] [mM]",further results
"C[C@H]1O[C@H](O[C@H]2[C@H](O)[C@@H](O)[C@@H](O[C@H]3[C@H](O)[C@@H](O)C(O)O[C@@H]3CO)O[C@@H]2CO)[C@H](O)[C@@H](O)[C@@H]1N[C@H]1C=C(CO)[C@@H](O)[C@H](O)[C@H]1O (stereo partly shown) [Acarabose, Acarbose, reference compound]",37.35,53.45,73.25,88.57,,,,,,,,,,,,,,
"O=C1O[C@H]([C@@H](O)CO)C(O)=C1O [Ascorbic acid, ascorbic acid, reference compound]",,,,,38.99,55.78,72.51,93.15,21.64,,,,,,,,,
"CC1=C(C(=O)O)N2C(=O)[C@@H](NC(=O)[C@H](N)c3ccc(O)cc3)[C@H]2SC1 [Cefadroxil, cefadroxil, reference compound]",,,,,,,,,,1.71,1.71,1.71,,,,,,"MIC [6, 11]: 3.4 mM; MIC [7, 12]: 3.4 mM"
"O=C1NC(=O)C(=Cc2ccc([N+](=O)[O-])cc2)S1 [Compound 1, 5-(4-Nitrobenzylidene)thiazolidine-2,4-dione]",22.65,35.79,55.52,88.68,32.64,40.22,73.41,84.81,36.35,4.9,4.9,4.9,54.35,4.9,4.9,9.9,9.9,
"O=C1NC(=O)C(=Cc2ccc(Cl)cc2Cl)S1 [Compound 3, 5-(2,4-Dichlorobenzylidene)thiazolidine-2,4-dione]",29.45,47.98,60.83,95.79,35.89,42.67,70.25,85.44,29.04,9.12,4.5,4.5,43.45,4.5,4.5,9.12,4.5,
"O=C1NC(=O)C(=Cc2ccccc2[N+](=O)[O-])S1 [Compound 4, 5-(2-Nitrobenzylidene)thiazolidine-2,4-dione]",31.26,40.65,63.93,92.61,29.45,45.75,79.74,83.10,36.17,,4.99,4.99,43.63,4.99,4.99,9.9,9.9,
"O=C1NC(=O)C(=Cc2ccc(O)cc2)S1 [Compound 5, 5-(4-Hydroxybenzylidene)thiazolidine-2,4-dione]",18.26,47.61,49.24,96.72,35.79,39.78,62.02,85.47,31.10,,5.65,5.65,56.64,5.65,5.65,,5.65,"MIC ([3]; tube dilution, 37 ± 1 °C, read-out: Minimum inhibitory concentration, E. coli): 11.3 mM; MIC [6, 11]: 11.3 mM"
"CCOc1cc(C=C2SC(=O)NC2=O)ccc1O [Compound 11, 5-(4-Hydroxy-3-ethoxybenzylidene)thiazolidine-2,4-dione]",18.49,47.87,59.74,89.71,18.64,25.71,72.78,93.59,64.03,4.7,4.7,4.7,52.69,4.7,4.7,4.7,9.4,
"COc1ccc(C=C2SC(=O)NC2=O)cc1 [Compound 12, 5-(4-methoxybenzylidene)thiazolidine-2,4-dione]",27.77,53.23,62.27,79.43,20.67,42.75,77.84,90.50,53.27,5.31,10.6,5.31,27.63,5.31,5.31,10.6,10.6,
"O=C1NC(=O)C(=Cc2ccccc2Cl)S1 [Compound 13, 5-(2-Chlorobenzylidene)thiazolidine-2,4-dione]",25.74,43.89,56.76,92.72,24.45,44.76,71.51,77.84,39.41,5.21,5.21,5.21,48.45,5.21,2.6,10.4,10.4,
"O=C1NC(=O)C(=Cc2ccccc2O)S1 [Compound 17, 5-(2-Hydroxybenzylidene)thiazolidine-2,4-dione]",23.67,48.56,65.46,93.17,32.78,40.24,69.55,89.87,40.06,5.65,5.65,5.65,48.48,5.65,5.65,,,"MIC [6, 11]: 11.3 mM; MIC [7, 12]: 11.3 mM"
"OC(Cn1cncn1)(Cn1cncn1)c1ccc(F)cc1F [Fluconazole, fluconazole, reference compound]",,,,,,,,,,,,,,,,,,"MIC ([8]; tube dilution, 37 ± 1 °C, read-out: Minimum inhibitory concentration, C. albicans): 4.08 mM; MIC ([9]; tube dilution, 25 ± 1 °C, 7 days, read-out: Minimum inhibitory concentration, A. niger): 4.08 mM"
